# Data from US4533553A, “Polycyclic ether antibiotic” (priority 1983, dated 1985).
# Key:
# Escherischia coli = test: in vitro MIC test; format: cell-based; details: 24 h
# Method: (§1) In Table I, below, the results of in vitro MIC tests are summarized. For this test each organism is inoculated in a series of test tubes containing nutrient medium and varying concentrations of Compound 53,607 to determine the minimal concentration of the antibiotic in mcg/ml which inhibits the growth of the organism over a period of 24 hours (MIC).
# [1] = tested on: Enterobacteriacese aerogenes; test: in vitro MIC test; format: cell-based; details: 24 h
# Method: as §1
# Serratia marcescens = test: in vitro MIC test; format: cell-based; details: 24 h
# Method: as §1
# Pseudomonas aeruginosa = test: in vitro MIC test; format: cell-based; details: 24 h
# Method: as §1
# Klebsiella pneumoniae = test: in vitro MIC test; format: cell-based; details: 24 h
# Method: as §1
# Eimeria acervulina = test: efficacy against coccidial infections in chickens; format: in vivo; details: for Weight Gain / Average degree of Infection: five days; for Average degree of Infection: lesion score 0 to 3; for Ratio: lesion score treated / infected control
# Method: (§2) Efficacy data for Antibiotic Compound 53,607 and its salts against coccidial infections in chickens was obtained in the following fashion. Groups of 3-5 ten-day old SPF white leghorn cockerel chicks were fed a mash diet containing Antibiotic Compound 53,607 or its sodium and/or potassium salt uniformly dispersed therein. After being on this ration for 24 hours each chick was inoculated per os with oocysts of the particular species of Eimeria being tested. Other groups of 3-5 ten-day old chicks were fed a similar mash diet free of Antibiotic Compound 53,607 or its salts. They were also infected after 24 hours and served as infected controls. Yet other groups of 3-5 ten-day old chicks were fed the mash diet free of Antibiotic Compound 53,607 and were not infected with coccidia. These served as normal controls. The results of treatment were evaluated after five days in the case of E. acervulina, and six days for all other challenges.
# (§3) ^1 The criteria used to measure anticoccidial activity consisted of
# (§4) lesion scores of 0 to 4 for E. tenella after J. E. Lynch "A New Method fo
# (§5) the Primary Evaluation of Anticoccidial Activity." , Am. J. Vet. Res.
# (§6) 22:324-326 (1961); and 0 to 3 for the other species based on modification
# (§7) of the scoring system devised by J. Johnson and W. H. Reid, "Anticoccidia
# (§8) drugs. Lesion Scoring Techniques in Battery and Floor Pen Experiments in
# (§9) Chicks.", Exp. Parasit. 28: 30-36(1970). A constant ratio was established
# (§10) by dividing the lesion score of each treated group by the lesion score of […]
# Eimeria brunetti = test: efficacy against coccidial infections in chickens; format: in vivo; details: for Average degree of Infection: lesion score 0 to 3; for Average degree of Infection / Weight Gain: six days; for Ratio: lesion score treated / infected control
# Method: as §2, §3, §4, §5, §6, §7, §8, §9, §10
# Eimeria maxima = test: efficacy against coccidial infections in chickens; format: in vivo; details: for Average degree of Infection: lesion score 0 to 3; for Average degree of Infection / Weight Gain: six days; for Ratio: lesion score treated / infected control
# Method: as §2, §3, §4, §5, §6, §7, §8, §9, §10
# Eimeria necatrix = test: efficacy against coccidial infections in chickens; format: in vivo; details: for Average degree of Infection: lesion score 0 to 3; for Average degree of Infection / Weight Gain: six days; for Ratio: lesion score treated / infected control
# Method: as §2, §3, §4, §5, §6, §7, §8, §9, §10
# [2] = tested on: coccidial infections in poultry; test: activity against coccidial infections in poultry; format: in vivo
# Method: as §2
# rumen fluid = test: in vitro rumen technique, propionic acid production; design: species or system cow; details: for increase in propionic acid: comparison with Salinomycin
# Method: The value of animal feeds generally has been determined directly by feeding the animal. British Patent Specification No. 1,197,826 details an in vitro rumen technique whereby the changes occurring in feeds brought about by microorganisms are measured more readily and with great accuracy in the evaluation of animal feeds. This technique involves the use of an apparatus in which the digestive processes of the animals are conducted and studied in vitro. The animal feeds, rumen inoculum and various growth promotants are introduced into and withdrawn from a laboratory unit under carefully controlled conditions and the changes taken place are studied critically and progressively during the consumption of the feed by the microorganisms. […] The change in propionic acid content is expressed as percent of the propionic acid content found in the control rumen fluid. Long term in vivo feeding studies are used to show a reliable correlation between propionic acid increase in the rumen fluid and improved animal performance.
# Rumen fluid is collected from a fistulated cow which is fed on a commercial fattening ration plus hay. The rumen fluid is immediately filtered through cheese cloth, and 10 ml added to a 50 ml conical flask containing 400 mg. of standard substrate (68% corn starch+17% cellulose+15% extracted soybean meal), 10 ml. of a pH 6.8 buffer and the test compound. The flasks are gassed with oxygen free nitrogen for about two minutes, and incubated in a shaking water bath at 39° C. for about 16 hours. All tests are conducted in triplicate.
# After incubation, 5 ml. of the sample is mixed with 1 ml. of 25% metaphosphoric acid. After 10 minutes 0.25 ml. of formic acid is added and the mixture centrifuged at 1,500 r.p.m. for 10 minutes. Samples are then analyzed by gas-liquid chromatograhy by the method of D. W. Kellog, J. Dairy Science, 52, 1690 (1969). Peak heights for acetic, propionic and butyric acids are determined for samples from untreated and treated incubation flasks.
structure (smiles),measurement,setting,value
"CC(=CC(C)C1OC2(CCC(C)(C3CCC(C)C4(OC(C5OC(O)(CO)C(C)CC5C)CC4C)O3)O2)CC(O)C1C)C(=O)C(C)CC(C)C(=O)O (stereo not shown) [Antibiotic Compound 53,607]",MIC,Escherischia coli,> 50 µg/mL
same,MIC,[1],> 50 µg/mL
same,MIC,Serratia marcescens,> 50 µg/mL
same,MIC,Pseudomonas aeruginosa,> 50 µg/mL
same,MIC,Klebsiella pneumoniae,> 50 µg/mL
same,Weight Gain,Eimeria acervulina; 25 ppm in diet,7%
same,Average degree of Infection,Eimeria acervulina; 25 ppm in diet,2.0
same,Ratio,Eimeria acervulina; 25 ppm in diet,1.00
same,Weight Gain,Eimeria acervulina; 50 ppm in diet,18%
same,Average degree of Infection,Eimeria acervulina; 50 ppm in diet,2.0
same,Ratio,Eimeria acervulina; 50 ppm in diet,1.00
same,Weight Gain,Eimeria acervulina; 100 ppm in diet,22%
same,Average degree of Infection,Eimeria acervulina; 100 ppm in diet,1.2
same,Ratio,Eimeria acervulina; 100 ppm in diet,0.60
same,Weight Gain,Eimeria acervulina; 200 ppm in diet,2%
same,Average degree of Infection,Eimeria acervulina; 200 ppm in diet,1.5
same,Ratio,Eimeria acervulina; 200 ppm in diet,0.75
same,controlling infections,"Eimeria acervulina; chickens, diet, 50 to 200 ppm",effective in controlling infections
same,Average degree of Infection,Eimeria brunetti; 25 ppm in diet,2.6
same,Ratio,Eimeria brunetti; 25 ppm in diet,1.44
same,Weight Gain,Eimeria brunetti; 25 ppm in diet,47%
same,Average degree of Infection,Eimeria brunetti; 50 ppm in diet,1.0
same,Ratio,Eimeria brunetti; 50 ppm in diet,0.55
same,Weight Gain,Eimeria brunetti; 50 ppm in diet,49%
same,Average degree of Infection,Eimeria brunetti; 100 ppm in diet,0.4
same,Ratio,Eimeria brunetti; 100 ppm in diet,0.22
same,Weight Gain,Eimeria brunetti; 100 ppm in diet,47%
same,controlling infections,"Eimeria brunetti; chickens, diet, 50 to 200 ppm",effective in controlling infections
same,Average degree of Infection,Eimeria maxima; 25 ppm in diet,1.4
same,Ratio,Eimeria maxima; 25 ppm in diet,0.88
same,Weight Gain,Eimeria maxima; 25 ppm in diet,51%
same,Average degree of Infection,Eimeria maxima; 50 ppm in diet,1.0
same,Ratio,Eimeria maxima; 50 ppm in diet,0.63
same,Weight Gain,Eimeria maxima; 50 ppm in diet,70%
same,Average degree of Infection,Eimeria maxima; 100 ppm in diet,0.8
same,Ratio,Eimeria maxima; 100 ppm in diet,0.50
same,Weight Gain,Eimeria maxima; 100 ppm in diet,37%
same,Average degree of Infection,Eimeria maxima; 200 ppm in diet,1.5
same,Ratio,Eimeria maxima; 200 ppm in diet,0.94
same,Weight Gain,Eimeria maxima; 200 ppm in diet,10%
same,controlling infections,"Eimeria maxima; chickens, diet, 50 to 200 ppm",effective in controlling infections
same,Average degree of Infection,Eimeria necatrix; 25 ppm in diet,0.6
same,Ratio,Eimeria necatrix; 25 ppm in diet,0.33
same,Weight Gain,Eimeria necatrix; 25 ppm in diet,111%
same,Average degree of Infection,Eimeria necatrix; 50 ppm in diet,0.2
same,Ratio,Eimeria necatrix; 50 ppm in diet,0.11
same,Weight Gain,Eimeria necatrix; 50 ppm in diet,99%
same,Average degree of Infection,Eimeria necatrix; 100 ppm in diet,0.0
same,Ratio,Eimeria necatrix; 100 ppm in diet,0.00
same,Weight Gain,Eimeria necatrix; 100 ppm in diet,69%
same,controlling infections,"Eimeria necatrix; chickens, diet, 50 to 200 ppm",effective in controlling infections
same,activity against coccidial infections in poultry,[2],excellent activity
same,increase in propionic acid,rumen fluid; 5 μg./ml.,about 40%
same,increase in propionic acid,rumen fluid; 20 μg./ml.,about 43%
same,increase in the production of propionic acid over control,"rumen fluid; 20 micrograms per milliliter, first comparison (with Monensin)",about 57%
